{"source": "paper PMC3655514", "about": "(Acta crystallographica. Section D, Biological …, 2010)", "key": {"[1]": {"target": "T1, pteridine reductase (TbPTR1) (Trypanosoma brucei, UniProt O76290)", "assay": "crystal structure at […] Å", "format": "biochemical"}, "[2]": {"target": "T1, pteridine reductase (TbPTR1)", "assay": "crystal structures", "format": "binding"}, "[3]": {"target": "T1, pteridine reductase (TbPTR1)", "assay": "crystal structure at […] Å", "format": "biochemical", "remark": "listed apart in the source"}, "[4]": {"target": "T1, pteridine reductase (TbPTR1)", "assay": "crystal structure at […] Å", "format": "biochemical", "remark": "listed apart in the source"}, "[5]": {"target": "T1, pteridine reductase (TbPTR1)", "assay": "crystal structure at […] Å", "format": "biochemical", "remark": "listed apart in the source"}}, "note": "Read-outs that look alike come from different tables or passages of the source.", "data": [{"molecule": "Nc1nc(N)nc(NC2CC2)n1", "note": "[Cyromazine, N-cyclopropyl-1,3,5-triazine-2,4,6-triamine]", "values": [{"measurement": "Ki", "setting": "[1]", "result": "> 35000", "unit": "nM"}]}, {"molecule": "NC(=O)c1ccc[n+]([C@@H]2O[C@H](COP(=O)(O)OP(=O)(O)OC[C@H]3O[C@@H](n4cnc5c(N)ncnc54)[C@H](OP(=O)(O)O)[C@@H]3O)[C@@H](O)[C@H]2O)c1", "note": "[NADP+]", "values": [{"measurement": "crystal structures (complexes with pemetrexed, trimetrexate, PY848)", "setting": "[2]", "result": "Crystals of TbPTR1 in a binary complex with oxidized cofactor (NADP^+) were grown"}]}, {"molecule": "COc1cc(NCc2ccc3nc(N)nc(N)c3c2C)cc(OC)c1OC", "note": "[Trimetrexate, 5-methyl-6-[(3,4,5-trimethoxyphenyl)aminomethyl]quinazoline-2,4-diamine]", "values": [{"measurement": "Ki", "setting": "[3]", "result": "~70", "unit": "nM"}]}, {"molecule": "COc1ccc(OC)c(CCc2csc3nc(N)nc(N)c23)c1", "note": "[PY848, 2,4-diamino-5-[2-(2,5-dimethoxyphenyl)ethyl]thieno[2,3-d]-pyrimidine]", "values": [{"measurement": "Ki", "setting": "[4]", "result": "~70", "unit": "nM"}]}, {"molecule": "Nc1nc2[nH]cc(CCc3ccc(C(=O)N[C@@H](CCC(=O)O)C(=O)O)cc3)c2c(=O)[nH]1", "note": "[Pemetrexed, 2-{4-[2-(4-amino-2-oxo-3,5,7-triazabicyclo[4.3.0]nona-3,8,10-trien-9-yl)ethyl]benzoyl}aminopentanedioic acid]", "values": [{"measurement": "Ki", "setting": "[5]", "result": "~30", "unit": "nM"}]}]}
